According to patent US8466181B2, “1,2,3-triazole-imidazole compounds” (Hoffmann-La Roche Inc., priority 2010, dated 2013):

Each compound was assayed against T1, human GABA A receptor α5β3γ2 (GABA Aa5) (Homo sapiens, UniProt P18507+P31644) (assay: [3H]flumazenil competition binding, HEK293 cells expressing human receptors). Details: not given.
T1 construct: expressed in transfected cells; host or cells: HEK293 cells, transiently transfected; membranes prepared
Description: The ability of compounds present invention to bind to GABA A receptor subtypes was determined by competition for [^3H]flumazenil (85 Ci/mmol; Roche) binding to HEK293 cells expressing rat (stably transfected) or human (transiently transfected) receptors of composition α1β2/3γ2, α2β3γ2, α3β3γ2 and α5β3γ2.
Cell pellets were suspended in Krebs-tris buffer (4.8 mM KCl, 1.2 mM CaCl2, 1.2 mM MgCl2, 120 mM NaCl, 15 mM Tris; pH 7.5; binding assay buffer), homogenized by polytron for ca. 20 sec on ice and centrifuged for 60 min at 4° C. (50000 g; Sorvall, rotor: SM24=20000 rpm). The cell pellets were resuspended in Krebs-tris buffer and homogenized by polytron for ca. 15 sec on ice. Protein was measured (Bradford method, Bio-Rad) and aliquots of 1 mL were prepared and stored at −80° C.
Assays were incubated to equilibrium for 1 hour at 4° C. and harvested onto GF/C uni-filters (Packard) by filtration using a Packard harvester and washing with ice-cold wash buffer (50 mM Tris; pH 7.5). After drying, filter-retained radioactivity was detected by liquid scintillation counting.
Ki values were calculated using Excel-Fit (Microsoft) and are the means of two determinations.
Representative test results, obtained by the above described assay measuring binding affinity to HEK293 cells expressing human (h) receptors, are shown in Table 1 below.

`CC(=O)c1ccc(-n2cnc(-c3c(-c4ccccc4F)nnn3C)c2)cc1` [Example 10, 1-(4-(4-(4-(2-Fluorophenyl)-1-methyl-1H-1,2,3-triazol-5-yl)-1H-imidazol-1-yl)phenyl)ethanone] was tested. Which Ki did it give?
Its Ki is 29.6 nM.

Same assay, conditions: displacement of [3H]flumazenil 0.5 nM; HEK293 transiently transfected human receptors; means of two determinations; read-out: hKi (GABA Aa5)

With `CC(=O)c1ccc(-n2cnc(-c3c(-c4ccc(F)cc4)nnn3C)c2)cc1` [Example 1, 1-(4-{4-[5-(4-Fluoro-phenyl)-3-methyl-3H-[1,2,3]triazol-4-yl]-imidazol-1-yl}-phenyl)-ethanone] as the compound, how does the Ki read?
Its Ki is 27.2 nM.

For `COC(=O)c1ccc(-n2cnc(-c3c(-c4ccc(F)cc4)nnn3C)c2)cc1` [Example 2, 4-{4-[5-(4-Fluoro-phenyl)-3-methyl-3H-[1,2,3]triazol-4-yl]-imidazol-1-yl}-benzoic acid methyl ester], which Ki is on record?
The Ki was 41.2 nM.

`CC(C)NC(=O)c1ccc(-n2cnc(-c3c(-c4ccc(F)cc4)nnn3C)c2)cc1` [Example 3, 4-{4-[5-(4-Fluoro-phenyl)-3-methyl-3H-[1,2,3]triazol-4-yl]-imidazol-1-yl}-N-isopropyl-benzamide] was tested. Which Ki did it give?
The Ki was 21.1 nM.

`Cn1nnc(-c2ccc(F)cc2)c1-c1cn(-c2ccc(C(=O)NC3CCOCC3)cc2)cn1` [Example 4, 4-{4-[5-(4-Fluoro-phenyl)-3-methyl-3H-[1,2,3]triazol-4-yl]-imidazol-1-yl}-N-(tetrahydropyran-4-yl)-benzamide] was tested. Which Ki did it give?
Its Ki is 36.6 nM.

With `Cn1nnc(-c2ccc(F)cc2)c1-c1cn(-c2ccc(C(=O)NC3(C)COC3)cc2)cn1` [Example 5, 4-{4-[5-(4-Fluoro-phenyl)-3-methyl-3H-[1,2,3]triazol-4-yl]-imidazol-1-yl}-N-(3-methyl-oxetan-3-yl)-benzamide] as the compound, how does the Ki read?
Its Ki is 23.8 nM.

`Cn1nnc(-c2ccc(F)cc2)c1-c1cn(-c2ccc(C(=O)N3CC4(COC4)C3)cc2)cn1` [Example 6, (4-{4-[5-(4-Fluoro-phenyl)-3-methyl-3H-[1,2,3]triazol-4-yl]-imidazol-1-yl}-phenyl)-(2-oxa-6-aza-spiro[3.3]hept-6-yl)-methanone] was tested. Which Ki did it give?
The Ki was 51.3 nM.

With `Cn1nnc(-c2ccc(F)cc2)c1-c1cn(-c2ccc(C(N)=O)cc2)cn1` [Example 7, 4-{4-[5-(4-Fluoro-phenyl)-3-methyl-3H-[1,2,3]triazol-4-yl]-imidazol-1-yl}-benzamide] as the compound, how does the Ki read?
Its Ki is 18.8 nM.

`Cn1nnc(-c2ccccc2F)c1-c1cn(-c2ccc(C(F)(F)F)cc2)cn1` [Example 8, 4-(2-Fluorophenyl)-1-methyl-5-(1-(4-(trifluoromethyl)phenyl)-1H-imidazol-4-yl)-1H-1,2,3-triazole] was tested. Which Ki did it give?
Its Ki is 84.3 nM.

`Cn1nnc(-c2ccccc2F)c1-c1cn(-c2ccc([N+](=O)[O-])cc2)cn1` [Example 9, 4-(2-Fluorophenyl)-1-methyl-5-(1-(4-nitrophenyl)-1H-imidazol-4-yl)-1H-1,2,3-triazole] was tested. Which Ki did it give?
The Ki was 76.3 nM.

For `CC(C)NC(=O)c1ccc(-n2cnc(-c3c(-c4ccc(F)cc4)nnn3C)c2)nc1` [Example 11, 6-{4-[5-(4-Fluoro-phenyl)-3-methyl-3H-[1,2,3]triazol-4-yl]-imidazol-1-yl}-N-isopropyl-nicotinamide], which Ki is on record?
Its Ki is 14.7 nM.

How did the Ki turn out when `Cn1nnc(-c2ccc(F)cc2)c1-c1cn(-c2ccc(C(=O)NC3CCOCC3)cn2)cn1` [Example 12, 6-{4-[5-(4-Fluoro-phenyl)-3-methyl-3H-[1,2,3]triazol-4-yl]-imidazol-1-yl}-N-(tetrahydropyran-4-yl)-nicotinamide] was run?
The Ki was 33 nM.

With `Cn1nnc(-c2ccc(F)cc2)c1-c1cn(-c2ccc(C(=O)NC3(C)COC3)cn2)cn1` [Example 13, 6-{4-[5-(4-Fluoro-phenyl)-3-methyl-3H-[1,2,3]triazol-4-yl]-imidazol-1-yl}-N-(3-methyl-oxetan-3-yl)-nicotinamide] as the compound, how does the Ki read?
Its Ki is 14.6 nM.

With `Cn1nnc(-c2ccc(F)cc2)c1-c1cn(-c2ccc(C(=O)N3CC4(COC4)C3)cn2)cn1` [Example 14, (6-{4-[5-(4-Fluoro-phenyl)-3-methyl-3H-[1,2,3]triazol-4-yl]-imidazol-1-yl}-pyridin-3-yl)-(2-oxa-6-aza-spiro[3.3]hept-6-yl)-methanone] as the compound, how does the Ki read?
Its Ki is 37.6 nM.

How did the Ki turn out when `Cn1nnc(-c2ccc(F)cc2)c1-c1cn(-c2ccc(C(F)(F)F)cn2)cn1` [Example 15, 2-{4-[5-(4-Fluoro-phenyl)-3-methyl-3H-[1,2,3]triazol-4-yl]-imidazol-1-yl}-5-trifluoromethyl-pyridine] was run?
The Ki was 82.2 nM.

How did the Ki turn out when `Cn1nnc(-c2ccc(F)cc2)c1-c1cn(-c2ccc(C(N)=O)cn2)cn1` [Example 16, 6-(4-(4-(4-Fluorophenyl)-1-methyl-1H-1,2,3-triazol-5-yl)-1H-imidazol-1-yl)nicotinamide] was run?
The Ki was 12.1 nM.

With `COC(=O)c1ccc(-n2cnc(-c3c(-c4ccccc4Cl)nnn3C)c2)nc1` [Example 17, Methyl 6-(4-(4-(2-chlorophenyl)-1-methyl-1H-1,2,3-triazol-5-yl)-1H-imidazol-1-yl)nicotinate] as the compound, how does the Ki read?
Its Ki is 68.8 nM.

How did the Ki turn out when `CC(C)NC(=O)c1ccc(-n2cnc(-c3c(-c4ccccc4Cl)nnn3C)c2)nc1` [Example 18, 6-(4-(4-(2-Chlorophenyl)-1-methyl-1H-1,2,3-triazol-5-yl)-1H-imidazol-1-yl)-N-isopropylnicotinamide] was run?
Its Ki is 75.1 nM.

With `Cn1nnc(-c2ccccc2Cl)c1-c1cn(-c2ccc(C(N)=O)cn2)cn1` [Example 19, 6-(4-(4-(2-Chlorophenyl)-1-methyl-1H-1,2,3-triazol-5-yl)-1H-imidazol-1-yl)nicotinamide] as the compound, how does the Ki read?
Its Ki is 66.2 nM.

With `COC(=O)c1ccc(-n2cnc(-c3c(-c4ccccc4F)nnn3C)c2)nc1` [Example 20, Methyl 6-(4-(4-(2-fluorophenyl)-1-methyl-1H-1,2,3-triazol-5-yl)-1H-imidazol-1-yl)nicotinate] as the compound, how does the Ki read?
The Ki was 16.2 nM.

How did the Ki turn out when `Cn1nnc(-c2ccccc2F)c1-c1cn(-c2ccc(C(=O)O)cn2)cn1` [Example 21, 6-(4-(4-(2-Fluorophenyl)-1-methyl-1H-1,2,3-triazol-5-yl)-1H-imidazol-1-yl)nicotinic acid] was run?
The Ki was 86 nM.

Which Ki does the source give for `Cn1nnc(-c2ccccc2F)c1-c1cn(-c2ccc(C(=O)NC3CCOCC3)cn2)cn1` [Example 22, 6-(4-(4-(2-Fluorophenyl)-1-methyl-1H-1,2,3-triazol-5-yl)-1H-imidazol-1-yl)-N-(tetrahydro-2H-pyran-4-yl)nicotinamide] here?
The Ki was 43.3 nM.

How did the Ki turn out when `CC(C)NC(=O)c1ccc(-n2cnc(-c3c(-c4ccccc4F)nnn3C)c2)nc1` [Example 23, 6-(4-(4-(2-Fluorophenyl)-1-methyl-1H-1,2,3-triazol-5-yl)-1H-imidazol-1-yl)-N-isopropylnicotinamide] was run?
Its Ki is 54.9 nM.

How did the Ki turn out when `Cn1nnc(-c2ccccc2F)c1-c1cn(-c2ccc(C(=O)NCC(C)(C)O)cn2)cn1` [Example 24, 6-(4-(4-(2-Fluorophenyl)-1-methyl-1H-1,2,3-triazol-5-yl)-1H-imidazol-1-yl)-N-(2-hydroxy-2-methylpropyl)nicotinamide] was run?
Its Ki is 21.3 nM.

For `Cn1nnc(-c2ccccc2F)c1-c1cn(-c2ccc(C(N)=O)cn2)cn1` [Example 25, 6-(4-(4-(2-Fluorophenyl)-1-methyl-1H-1,2,3-triazol-5-yl)-1H-imidazol-1-yl)nicotinamide], which Ki is on record?
Its Ki is 19.3 nM.

With `Cn1nnc(-c2ccccc2F)c1-c1cn(-c2ccc(C(=O)N3CC4(COC4)C3)cn2)cn1` [Example 26, (6-(4-(4-(2-Fluorophenyl)-1-methyl-1H-1,2,3-triazol-5-yl)-1H-imidazol-1-yl)pyridin-3-yl)(2-oxa-6-azaspiro[3.3]heptan-6-yl)methanone] as the compound, how does the Ki read?
The Ki was 66.5 nM.

`Cn1nnc(-c2ccccc2F)c1-c1cn(-c2ccc(C(=O)NC3(C)COC3)cn2)cn1` [Example 27, 6-(4-(4-(2-Fluorophenyl)-1-methyl-1H-1,2,3-triazol-5-yl)-1H-imidazol-1-yl)-N-(3-methyloxetan-3-yl)nicotinamide] was tested. Which Ki did it give?
Its Ki is 16.1 nM.

With `Cn1nnc(-c2ccccc2F)c1-c1cn(-c2ccc(C(=O)NN3CCOCC3)cn2)cn1` [Example 28, 6-(4-(4-(2-Fluorophenyl)-1-methyl-1H-1,2,3-triazol-5-yl)-1H-imidazol-1-yl)-N-morpholinonicotinamide] as the compound, how does the Ki read?
The Ki was 32.4 nM.

For `Cn1nnc(-c2ccccc2F)c1-c1cn(-c2ccc(C(=O)NC3CC3)cn2)cn1` [Example 29, N-Cyclopropyl-6-(4-(4-(2-fluorophenyl)-1-methyl-1H-1,2,3-triazol-5-yl)-1H-imidazol-1-yl)nicotinamide], which Ki is on record?
The Ki was 9.5 nM.

With `Cn1nnc(-c2ccccc2F)c1-c1cn(-c2ccc(C(F)(F)F)cn2)cn1` [Example 30, 2-(4-(4-(2-Fluorophenyl)-1-methyl-1H-1,2,3-triazol-5-yl)-1H-imidazol-1-yl)-5-(trifluoromethyl)pyridine] as the compound, how does the Ki read?
The Ki was 65 nM.

For `Cc1nnn(-c2ccc(F)cc2)c1-c1cn(-c2ccc(C(F)(F)F)cc2)cn1` [Example 31, 1-(4-Fluoro-phenyl)-4-methyl-5-[1-(4-trifluoromethyl-phenyl)-1H-imidazol-4-yl]-1H-[1,2,3]triazole], which Ki is on record?
Its Ki is 49.2 nM.

Which Ki does the source give for `CC(=O)c1ccc(-n2cnc(-c3c(C)nnn3-c3ccc(F)cc3)c2)cc1` [Example 32, 1-(4-{4-[3-(4-Fluoro-phenyl)-5-methyl-3H-[1,2,3]triazol-4-yl]-imidazol-1-yl}-phenyl)-ethanone] here?
Its Ki is 25.9 nM.

How did the Ki turn out when `COC(=O)c1ccc(-n2cnc(-c3c(C)nnn3-c3ccccc3F)c2)cc1` [Example 33, Methyl 4-(4-(1-(2-fluorophenyl)-4-methyl-1H-1,2,3-triazol-5-yl)-1H-imidazol-1-yl)benzoate] was run?
Its Ki is 34.5 nM.
